According to patent publication US6699894B1, “Methods for treatment of inflammatory bowel disease” (OSI Pharmaceuticals, Inc., priority 2001, dated 2004):
Structures can show the parent of a compound that is named as a salt. Where two headings read alike, the source gives them in different places.

Legend:
[1] = target: T1, GST-cGB-PDE5 fusion protein (Homo sapiens, UniProt O76074); test: cGMP binding assay with GST-cGB-PDE5 fusion protein; conditions: for competition with cGMP binding at high concentration: test substance 100 μM vs cGMP 2 μM
T1 construct: made in house; host or cells: E. coli BL21 (DE3)
Experimental: 5′-3′, Inc. kits for total RNA followed by oligo (dT) column purification of mRNA are used with HT-29 cells. […] It is then cloned into pGEX-5X-3 glutathione-S-transferase (GST) fusion vector (Pharmacia Biotech) with tac promoter, and EcoRI and XhoI cut sites. The fusion vector is then transfected into E. Coli BL21 (DE3) bacteria (Invitrogen). The transfected BL21 bacteria is grown to log phase, and then IPTG is added as an inducer. The induction is carried at 20° C. for 24 hrs. The bacteria are harvested and lysed. The soluble cell lysate is incubated with GSH conjugated Sepharose 4B (GSH-Sepharose 4B). The GST-cGB-PDE5 fusion protein can bind to the GSH-Sepharose beads, and the other proteins are washed off from beads with excessive cold PBS.
Then, the mixture is transferred to Brandel MB-24 cell harvester with GF/B as the filter membrane followed by 2 washes with 10 mL of cold 5 mM potassium buffer(pH 6.8). The membranes are then cut out and transferred to scintillation vials followed by the addition of 1 mL of H2O and 6 mL of Ready Safe™ liquid scintillation cocktail to each vial. The vials are counted on a Beckman LS 6500 scintillation counter.
The quenching by filter membrane or other debris are also calibrated.

rats [2] = test: 28-day study in rats; format: in vivo
Experimental: A 28-day study in rats was also carried out at 0, 50, 500 and 2000 mg/kg/day.

dogs with IBD = test: Efficacy trial in dogs with IBD; format: in vivo
Excerpt: IBD in humans is quite similar to IBD in dogs. […] In fact, the IBD treatments used in dogs are very similar to those used in humans, and the success rates are similarly disappointing. The number of dogs with IBD is estimated to be in the millions in the U.S. Feline IBD is also quite common.
The pre-drug history and results achieved with the drug in each dog are as follows: […]

rats [3] = test: Seven-day dose-range finding study in rats; format: in vivo; conditions: 7 days
rats [4] = test: Acute toxicity study in rats; conditions: rat, in vivo
PDE1 = test: PDE inhibition: PDE1; format: biochemical; conditions: similar protocols
patients = test: Single, escalating dose human clinical safety trial; format: in vivo; conditions: oral, 50 mg BID, 100 mg BID, 200 mg BID and 400 mg BID
PDE4 = test: PDE inhibition: PDE4; format: biochemical; conditions: similar protocols
dogs [5] = test: 91-day oral study in dogs; format: in vivo
dogs [6] = test: Acute and seven-dose toxicity in dogs (capsules); conditions: dog, in vivo
Experimental: Therefore, these dogs were subsequently administered seven consecutive doses of 1000 mg/kg/day.

rats [7] = test: 91-day long-term safety assessment study in rats; format: in vivo
Excerpt: These changes were not associated with any gross clinical abnormality.

PDE 5 = PDE 5 (Homo sapiens, UniProt O76074); test: Competitive binding (with cGMP) to PDE5
native bovine PDE5 = native bovine PDE5 (Bos taurus, UniProt Q28156); conditions: read-out: Kd of cGMP binding to native bovine PDE5; cited from earlier work
[8] = 28 days, 50, 500 and 2000 mg/kg/day
[9] = 91 days, highest dose group (300 mg/kg/day)

## CCCCOC1C2OP(=O)(O)OCC2OC1n1cnc2c(N)ncnc21 (stereo not shown) [2′-O-butyl-cAMP]
[1]; 3H-cGMP 2 μM, 22° C., 1 hour
  competition with cGMP in binding of GST-cGB-PDE5: did not compete

## CCCCOC1C2OP(=O)(O)OCC2OC1n1cnc2c(=O)[nH]c(N)nc21 (stereo not shown) [2′-O-butyl-cGMP]
[1]; 3H-cGMP 2 μM, 22° C., 1 hour
  competition with cGMP in binding of GST-cGB-PDE5: did not compete

## Nc1ncnc2c1ncn2[C@@H]1O[C@@H]2COP(=O)(O)O[C@H]2[C@H]1O [Cyclic AMP]
[1]
  competition with cGMP in binding of GST-cGB-PDE5: did not compete

## O=c1[nH]cnc2c1ncn2[C@@H]1O[C@@H]2COP(=O)(O)O[C@H]2[C@H]1O [Cyclic IMP]
[1]
  competition with cGMP binding at high concentration: can partially compete

## Nc1nc2c(nc(Br)n2[C@@H]2O[C@@H]3COP(=O)(O)O[C@H]3[C@H]2O)c(=O)[nH]1 [Example 8-bromo-cGMP, 8-bromo-cGMP]
[1]
  competition with cGMP binding at high concentration: can partially compete

## CC1=C(CC(=O)NCc2ccccc2)c2cc(F)ccc2/C1=C\c1ccncc1 [Example 38, (Z)-5-Fluoro-2-Methyl-(4-Pyridylidene)-3-(N-Benzyl)Indenylacetamide Hydrochloride]
Rats [2]; 28 days
  macroscopic tissue changes at necropsy: No macroscopic tissue changes
Rats [2]; 28 days, 2000 mg/kg/day
  liver weights: statistically significant increase
  thyroid weights: statistically significant increases
Rats [2]; [8]
  body weight changes, ophthalmoscopic examinations, hematological and blood chemistry values and urinalysis: unremarkable
  clinical observations: no abnormal clinical observations
Rats [2]; 28 days, 50 and 500 mg/kg/day
  liver and thyroid weights at the lower doses: not statistically significant
Rats [2]; 28 days, generally limited to a small number of animals at 2000 mg/kg/day, one female at 500 mg/kg/day
  histopathological evaluation of tissues: traces of follicular cell hypertrophy, increased numbers of mitotic figures (suggestive of possible cell proliferation) in the thyroid gland and mild centrilobular hypertrophy in the liver
Dogs with IBD; Dog #1, 12 weeks of 800 mg BID
  body weight regained, Dog #1: at least 13 lbs.
  histopathological change, Dog #1: significant histopathological improvement
Dogs with IBD; Dog #1, Month 8 (start), after 12 weeks of treatment, 46 lbs at Month 3 (middle)
  body weight, Dog #1: 60 lbs
Dogs with IBD; Dog #1, after 12 weeks of treatment, FIGS. 2 and 4
  small intestine histopathology after treatment, Dog #1: closely mimics normal canine small intestinal tissue
Dogs with IBD; Dog #2, after 7 weeks 400 mg BID
  blood protein levels, Dog #2: returned to normal
Dogs with IBD; Dog #3, 400 mg BID
  blood protein levels, Dog #3: gradually returned to within normal limits
Dogs with IBD; Dog #4, after 7 weeks 800 mg BID, owner report
  stool, Dog #4: normal size stool with no mucus
Dogs with IBD; after 7 weeks 800 mg BID, late stage abdominal neoplastic disease discovered post-mortem
  outcome, Dog #6: Euthanized
Dogs with IBD; chronic IBD, 7 weeks 800 mg BID without conventional IBD treatments
  clinical status, Dog #5: significantly improved and completely normal
Dogs with IBD; chronic IBD, conventional therapy withdrawn, 7 weeks 800 mg BID
  clinical status, Dog #4: completely clinically normal with no signs of IBD
Dogs with IBD; chronic IBD, tylosin stopped, after one week on drug, then withdrawn by owner
  stools, Dog #7: normal stools began to be formed
Dogs with IBD; moderate IBD (plasmacytic enteritis), two weeks conventional therapy, then 7 weeks 400 mg BID alone
  clinical status, Dog #2: Clinically normal
Dogs with IBD; protein-losing enteropathy with IBD, 7 weeks 400 mg BID with intermittent metronidazole, no prednisone
  clinical status, Dog #3: clinically normal
Dogs with IBD; severe IBD, conventional treatment withdrawn, 800 mg BID, first 30 days, owner report
  clinical status in first 30 days, Dog #6: playful, active and clinically normal
Dogs with IBD; severe lymphoplasmacytic enteritis, 6 weeks conventional therapy plus 800 mg BID, then 6 weeks 800 mg BID alone
  clinical status, Dog #1: became clinically normal
Rats [3]; 50 mg/kg/day
  signs of toxicity: no observable signs of toxicity
Rats [3]; 500 mg/kg/day
  treatment-related effects: increase in absolute and relative liver weights in female rats
Rats [3]; 2000 mg/kg/day
  treatment-related effects: labored breathing and/or abnormal respiratory sounds, decreased weights gains and food consumption in male rats, and increased liver weights in female rats
Rats [3]; any dose level (50, 500, 2000 mg/kg/day)
  hematology, blood chemistry, microscopic pathology: No hematological or blood chemistry changes nor any microscopic pathology changes
[1]
  binding to the cGMP binding sites of GST-cGB-PDE5 / PDE5: does not bind to the cGMP-binding site of PDE5
Rats [4]
  acute toxicity on a single-dose basis: not acutely toxic
Rats [4]; ip, 1000 mg/kg
  body weight gain: reduced body weight gain
  necropsy finding: mesenteric adhesions seen in some animals
Rats [4]; po, 2000 mg/kg
  body weight gains: slightly reduced
PDE1
  IC50: 3 µM
patients
  side effects: no significant side effects at any dose
PDE4
  IC50: 6 µM
Dogs [5]; 91 days
  tolerability: well tolerated
Dogs [5]; 91 days, 150 and 300 mg/kg/day
  feces observation: Orange discoloration of the feces
Dogs [5]; 91 days, highest dose group
  microscopic alterations of liver: no microscopic alterations
Dogs [5]; [9]
  body weights: Slightly lowered body weights
  liver weights: increased liver weights
Dogs [5]; oral, 91 consecutive days, 50, 150 and 300 mg/kg/day
  toxicological effects overall: no toxicological effects
Dogs [5]; oral, 91 days
  route of elimination (suggested by feces colour): most of Compound 38 was being eliminated via the feces
Dogs [6]; 1000 mg/kg
  signs of toxicity: no signs of toxicity
Dogs [6]; 1000 mg/kg/day
  signs of drug-related effects: At no time in either dosing phase were any obvious signs of drug-related effects observed
Rats [7]; 91 days
  clinical biochemistry and hematology: no changes in clinical biochemistry and hematology were evident
Rats [7]; 91 days, 500 mg/kg/day
  microscopic finding, follicular cells: follicular cell hypertrophy
Rats [7]; 91 days, 200 and 500 mg/kg/day
  microscopic finding, kidneys: increase in accumulation of hyalin droplets in the kidneys
  microscopic finding, liver: slight hepatocellular hypertrophy
Rats [7]; 91 days, males and females at 200 and 500 mg/kg/day
  liver and thyroid/parathyroid weights: dose-related trend to increased liver and thyroid/parathyroid weights
Rats [7]; oral, 91 consecutive days, 50, 200 and 500 mg/kg/day
  toxicological effects overall: did not produce any major toxicological effects
PDE 5
  competitive (with cGMP) binding to PDE 5: does competitively (with cGMP) bind to PDE 5

## O=C([O-])C1CCN(c2nc(NCc3ccc4c(c3)OCO4)c3cc(Cl)ccc3n2)CC1.[Na+] [Example E4021]
[1]; 3H-cGMP 2 μM, 22° C., 1 hour
  competition with cGMP in binding of GST-cGB-PDE5: None of the PDE5 inhibitors showed any competition with cGMP

## CSc1ccc(/C=C2/C(C)=C(CC(=O)O)c3cc(F)ccc32)cc1 [Sulindac sulfide, sulindac sulfide]
[1]; 3H-cGMP 2 μM, 22° C., 1 hour
  competition with cGMP in binding of GST-cGB-PDE5: None of the PDE5 inhibitors showed any competition with cGMP

## Nc1ccn([C@@H]2O[C@@H]3COP(=O)(O)O[C@H]3[C@H]2O)c(=O)n1 [cCMP]
[1]; 3H-cGMP 2 μM, 22° C., 1 hour
  competition with cGMP in binding of GST-cGB-PDE5: did not compete

## Nc1nc2c(ncn2[C@@H]2O[C@@H]3COP(=O)(O)O[C@H]3[C@H]2O)c(=O)[nH]1 [cGMP, cyclic 3′,5′-guanosine monophosphate]
[1]
  binding to the cGMP binding sites of GST-cGB-PDE5 / PDE5: specifically bound
[1]; read-out: Kd of cGMP binding to GST-cGB-PDE5, two cGMP binding sites
  Kd: 1.6 ± 0.2 µM
Native bovine PDE5
  Kd: 1.3 µM

## O=c1ccn([C@@H]2O[C@@H]3COP(=O)(O)O[C@H]3[C@H]2O)c(=O)[nH]1 [cUMP]
[1]; 3H-cGMP 2 μM, 22° C., 1 hour
  competition with cGMP in binding of GST-cGB-PDE5: did not compete

## CC1=C(CC(=O)O)c2cc(F)ccc2/C1=C\c1ccc(S(C)(=O)=O)cc1 [exisulind]
[1]; 3H-cGMP 2 μM, 22° C., 1 hour
  competition with cGMP in binding of GST-cGB-PDE5: None of the PDE5 inhibitors showed any competition with cGMP

## CCCOc1ccccc1-c1nc2nn[nH]c2c(=O)[nH]1 [zaprinast]
[1]; 3H-cGMP 2 μM, 22° C., 1 hour
  competition with cGMP in binding of GST-cGB-PDE5: None of the PDE5 inhibitors showed any competition with cGMP
